{"source": "patent US20100193777A1", "about": "“METHOD OF PRODUCING A DESUBSTITUTED COMPOUND, ORGANIC SEMICONDUCTOR FILM AND METHOD OF PRODUCING THE SAME” (FUJIFILM Corporation, priority 2007, published 2010)", "assay_type_in_all_cases": "physicochemical", "key": {"[1]": {"experiment": "Light resistance test of dye films", "conditions": "absorbance at maximum absorption wavelength, 48 h light resistance test", "procedure": "The above-described thin films 1 to 4 were each stored for 24 hours under the conditions of 23° C. and 50% RH. Thereafter, these thin films were each subjected to a light resistance test using a merry-go-round type apparatus for testing of light resistance (Cell Testing Apparatus III, trade name, manufactured by Eagle Engineering Co., Ltd., with a filter WG 320, trade name, manufactured by Schott AG). Absorption spectra of the dye films just before the light resistance test and the dye films after the light resistance test for 48 hours were measured using UV-1600 PC (trade name, manufactured by Shimadzu Corporation). A change of absorbance at the maximum absorption wavelength was read from each absorption spectrum."}, "[2]": {"experiment": "Solubility in a solvent (chloroform or water)", "conditions": "for solubility in water after heating: after heated at 250° C.", "procedure": "In the first embodiment of the present invention, the term “solvent-soluble (being soluble in a solvent)” means to show a solubility of 0.1% by mass or more, more preferably 0.5% by mass or more, and further preferably 1% by mass or more, with respect to a solvent in interest when the solvent to which a compound in interest is added is heated under reflux and then cooled down to room temperature. Further, the term “solvent-insolubilization (to make a compound insoluble in a solvent)” means to reduce the solubility by one digit figure or more than the solvent-soluble state. Specifically, with respect to a solvent, when the solvent is heated under reflux and then cooled down to room temperature, it is preferable to reduce from the solubility of 0.1% by mass or more (solvent-soluble) to the solubility of 0.01% by mass or less, further preferably from the solubility of 0.5% by mass or more (solvent-soluble) to the solubility of 0.05% by mass or less, and especially preferably from the solubility of 1% by mass or more (solvent-soluble) to the solubility of less than 0.1% by mass. Further, the term “solvent-insoluble (being insoluble in a solvent)” means to show solubility of less than 0.1% by mass, preferably 0.05% by mass or less, and further preferably 0.01% by mass or less, with respect to a solvent in interest when the solvent to which a compound in interest is added is heated under reflux and then cooled down to room temperature.\nThere is no particular restriction in the kind of solvent when degrees of the above-described “solvent-soluble” and “solvent-insoluble” are defined. Accordingly, both “solvent-soluble” and “solvent-insoluble” may be defined in terms of solvent and temperature each of which is actually used. Alternatively, for example, these properties may be specified as solubility (25° C.) with respect to water (distilled water). However, the solvent used in the first embodiment of the present invention is not limited by the above."}, "[3]": {"experiment": "TG/DTA thermal analysis (rate of decrease in mass on heating)", "procedure": "The thermal analysis (TG/DTA measurement) of the thus-produced Exemplified compound (1) was conducted. The TG/DTA measurement was conducted at the rate of temperature increase of 10° C./min in a range of 30° C. to 550° C. under a current of nitrogen gas (flow rate: 200 ml/min) using EXSTAR 6000 (trade name, manufactured by Seiko Instruments Inc.), to determine a rate of decrease in mass. FIG. 1 is a graph showing TG/DTA measurement results of the Exemplified compound (1). Herein, in each of Examples and Comparative Examples described below, the measurement of TG was conducted using the same apparatus and under the same conditions as described above.\nIn FIG. 1, the uppermost curve indicates the change of mass with respect to temperature (TG.). The bottom curve indicates the heat going in and out with respect to temperature (enthalpy change) (DTA). The middle curve indicates the amount of change of TG (differential value) per time (DTG)."}}}
{"compound": "CC(C)(C)OC(=O)N1C(=O)C2=C(c3ccccc3)N(C(=O)OC(C)(C)C)C(=O)C2=C1c1ccccc1", "note": "[Compound 1 for comparison]", "values": [{"measurement": "Residual rate after 48 hours", "setting": "[1]; dye film after heating", "result": 91, "unit": "%"}, {"measurement": "Residual rate after 48 hours", "setting": "[1]; dye film before heating", "result": 1.9, "unit": "%"}]}
{"compound": "[Cu+2].c1ccc2c(c1)-c1nc-2nc2[n-]c(nc3nc(nc4[n-]c(n1)c1ccccc41)-c1ccccc1-3)c1ccccc21", "note": "[cupper phthalocyanine]", "values": [{"measurement": "solubility in a solvent such as chloroform", "setting": "[2]", "result": "so low that a film was not formed"}]}
{"compound": "c1ccc2c(c1)-c1nc-2nc2[nH]c(nc3nc(nc4[nH]c(n1)c1ccccc41)-c1ccccc1-3)c1ccccc21", "note": "[metal-free phthalocyanine]", "values": [{"measurement": "solubility in a solvent such as chloroform", "setting": "[2]", "result": "so low that a film was not formed"}, {"measurement": "solubility in water", "setting": "[2]", "result": "so low that a film was not formed"}]}
{"compound": "[Zn+2].c1ccc2c(c1)-c1nc-2nc2[n-]c(nc3nc([n-]c4nc(n1)-c1ccccc1-4)-c1ccccc1-3)c1ccccc21", "note": "[zinc phthalocyanine]", "values": [{"measurement": "solubility in a solvent such as chloroform", "setting": "[2]", "result": "so low that a film was not formed"}, {"measurement": "solubility in water", "setting": "[2]", "result": "so low that a film was not formed"}]}
{"compound": "copper phthalocyanine-tetrasulfonic acid tetrasodium salt", "values": [{"measurement": "solubility in water", "setting": "[2]", "result": "soluble"}, {"measurement": "temperature of desubstitution of the substituent", "setting": "[3]; from TG and MS of heated residue", "result": "higher than 400 °C"}, {"measurement": "reduction in weight in TG on heating", "setting": "[3]; heated up to 400° C., after initial loss of solvent or water", "result": "did not cause any reduction in weight"}]}
{"compound": "metal-free phthalocyanine-tetrasulfonic acid [Exemplified compound (54)]", "values": [{"measurement": "solubility in water", "setting": "[2]", "result": "soluble"}, {"measurement": "solubility in water after heating", "setting": "[2]", "result": "soluble"}]}
{"compound": "zinc phthalocyanine-tetrasulfonic acid [Exemplified compound (53)]", "values": [{"measurement": "solubility in water", "setting": "[2]", "result": "soluble"}, {"measurement": "solubility in water after heating", "setting": "[2]", "result": "soluble"}]}
